{"source": "patent US20060292243A1", "about": "“Arsenic compounds for the treatment of the arsenic-sensitive blast-cell related diseases” (priority 2005, published 2006)", "key": {"[1]": {"test_system": "ssDNA", "experiment": "Serum IgG anti-ssDNA ELISA in SLE model mice", "type": "in vivo, NZB/NZW mice", "method": "In vivo studies on the activity of arsenic compound were carried out by using an experimental animal model of human Systemic Lupus Erythematosus. NZB/NZW denotes the mouse strain that spontaneously develops an autoimmune syndrome having notable similarities to human Systemic Lupus Erythematosus. Autoimmune disease in NZB/NZW mice is characterized by antinuclear antibodies (IgG) production about 4 months of age, and glomerulonephritis with proteinuria is developed when at 9 months of age, and that is the major cause of death (uremia).\nAt 24 weeks of age, mice (3 groups) were treated 3 times per week with PBS (Group I as positive control), 2.5 mg/kg of As2O3 (Group II), or 5 mg/kg of As2O3 (Group III) administered intraperitoneally. The treatment was stopped at 28 weeks of age. Mice were observed daily for clinical signs of disease and for mortality and were bled every 4 weeks for determination of anti-DNA antibody production.\nStandard ELISA assay to measure the serum levels of anti-DNA antibodies was performed as follows. The plates were coated 10 μg/mL mBSA 4° C. overnight before coating dsDNA and ssDNA diluted with PBS to concentration of 7.5 μg/mL. ssDNA was prepared by boiling for 20 min then placed on ice immediately for 20 min. After overnight incubation at 4° C., the plates were washed and blocked with gelatin-PBS solution. The serum was diluted and then added to the appropriate wells, which were then incubated at 37° C. for 45 min. Horseradish peroxidase-comjugated anti-mouse γ-chain-specific antibodies were added. After incubation at 37° C. for 50 min, then room temperature for 10 min, 2,2′-azino-bisC3-ethylbenzthiazoline-6-sulphonic acid (ABTS) solution was used as substrate and the absorbance was measured at 405 nm. The level of anti-DNA IgG is presented as ELISA units (EU/ml) compared with mAb 10F10. The OD value generated by 74 ng/ml of 10F10 Ab was defined as 1 EU/ml for anti-DNA IgG. The level of anti-nucleosome IgG was calculated as EU by comparison with 10F10 Ab. The absorbance value generated by 231 ng/ml of 10F10 Ab was defined as 1 EU/ml of anti-nucleosome IgG."}, "[2]": {"test_system": "Trypanosoma brucei", "experiment": "Anti-Trypanosoma test, viable cell count", "type": "cell-based", "method": "Arsenic trioxide (Asadin®, 10 mg/10 ml/vial) was used to check the toxicity on the Trypanosoma brucei. Viable cell count was microscopically monitored. […] This is one third of recommended dosage of Melarsoprol (an Anti-Trypanosoma drug). Moreover, cytology observation noticed specific death morphology on cell toxicity. […] Further cytology examination on the death cells will be examined."}, "[3]": {"test_system": "Eotaxin", "experiment": "Eotaxin in BALF by ELISA, OVA-immunized mice", "type": "in vivo, BALB/c mice", "method": "(§1) BALB/c mice (female, 6-8 weeks) were immunized with ovalbumin (OVA) at day 0, 14, 21 and 28. 38 days later, animals were injected with arsenic trioxide (ATO) i.p. for 7 days and antigen challenges with OVA were performed at day 42, 43, 44. At day 45, the airway enhanced pause (PenH) values were measured. 48 hours after the last antigen challenges, the mice were sacrificed, the trachea cannulated, and bronchoalveolar lavage (BAL) was performed by four repeated lavages with balanced salt solution (HBSS) injected into the lungs via the trachea. Total cell counts were performed with a hemocytometer after staining with trypan blue, and then cytospins were prepared, and a differential count of 300 cells per slide was performed. To obtain the absolute number of each leukocyte subtype in the lavage, the percentage of each cell type was multiplied by the total number of cells that were recovered from the bronchoalveolar lavage fluid (BALF). Eotaxin in the BALF was measured via ELISA. Four groups of mice were treated as Table 3.1.\n(§2) Group A mice were challenged by PBS only and then treated by PBS, too. Group B mice were immunized by ovalbumin and then treated by PBS only. Group C mice were immunized by ovalbumin and then treated by arsenic trioxide in a dosage of 2.5 mg per kg for mice. Group D mice were challenged by ovalbumin as group B and C and then treated by arsenic trioxide in a dosage of 5 mg/kg."}, "[4]": {"test_system": "white blood cells in BALF", "experiment": "Differential white blood cell count in BALF, OVA-immunized mice", "type": "in vivo, BALB/c mice", "conditions": "for Lymphocyte concentration in BALF / Neutrophil concentration in BALF: mean; for Eosinophil concentration in BALF / Macrophage concentration in BALF: mean ± SD", "method": "as §1, §2\nThe white blood cells in BALF were counted and differentiated. Every kind of white cell was increased in immunized groups when in comparison with the non-immunized group."}, "[5]": {"test_system": "T lymphocytes (CD3+)", "experiment": "Caspase-3 (Phiphilux) apoptosis within gated PBMC subsets", "type": "cell-based", "source_text": "3. The detection of apoptosis within different subsets of PBMCs by the combination of mAb-fluorescein tandem staining and the treatment of Phiphilux through flowcytometry. Phiphilux is a substrate of caspase-3, composed of a specific oligo-peptide with its sequence subjected to functional caspase-3 cutting and, at each end of the peptide, is covalently coupled to two identical fluorophores.\nThus, the conclusion is that T lymphocytes are more sensitive to arsenic trioxide according the flow data."}}, "note": "Values joined by “and” are separate entries in the source; they are usually repeats but may differ in a detail not shown here. Equal entries are not always repeated. Marks after values point to notes of the source that are not given here."}
{"substance": "arsenic trioxide", "values": [{"measurement": "IgG Anti-ssDNA titer", "setting": "[1]; 2.5 mg/kg i.p. 3 times per week, before treatment", "result": 0.155, "unit": "ELISA Unit"}, {"measurement": "IgG Anti-ssDNA titer", "setting": "[1]; 2.5 mg/kg, 4 weeks after treatment", "result": 0.347, "unit": "ELISA Unit"}, {"measurement": "IgG Anti-ssDNA titer", "setting": "[1]; 2.5 mg/kg, 8 weeks after treatment", "result": 0.400, "unit": "ELISA Unit"}, {"measurement": "IgG Anti-ssDNA titer", "setting": "[1]; 2.5 mg/kg, 12 weeks after treatment", "result": 0.105, "unit": "ELISA Unit"}, {"measurement": "IgG Anti-ssDNA titer", "setting": "[1]; 5 mg/kg i.p. 3 times per week, before treatment", "result": 0.176, "unit": "ELISA Unit"}, {"measurement": "IgG Anti-ssDNA titer", "setting": "[1]; 5 mg/kg, 4 weeks after treatment", "result": 0.303, "unit": "ELISA Unit"}, {"measurement": "IgG Anti-ssDNA titer", "setting": "[1]; 5 mg/kg, 8 weeks after treatment", "result": 0.296, "unit": "ELISA Unit"}, {"measurement": "IgG Anti-ssDNA titer", "setting": "[1]; 5 mg/kg, 12 weeks after treatment", "result": 0.201, "unit": "ELISA Unit"}, {"measurement": "killing effect on Trypanosoma brucei (viable cell count)", "setting": "[2]; 0.1 mg/ml/day for 3 days, over 7 days", "result": "complete killing effect"}, {"measurement": "death morphology on cytology observation", "setting": "[2]; cultured Trypanosoma brucei", "result": "Cells became thread-like"}, {"measurement": "killing dosage compared with Melarsoprol", "setting": "[2]; cultured Trypanosoma brucei", "result": "comparable, if not better"}, {"measurement": "killing potency versus 3 doses regimen", "setting": "[2]; one dose regimen of 0.3 mg/ml", "result": "less killing potency at least one log difference"}, {"measurement": "eotaxin in BALF, Mean", "setting": "[3]; Group C: OVA, ATO 2.5 mg/kg i.p. for 7 days", "result": "12.38* pg/ml"}, {"measurement": "eotaxin in BALF, Mean", "setting": "[3]; Group D: OVA, ATO 5 mg/kg i.p. for 7 days", "result": 16.00, "unit": "pg/mL"}, {"measurement": "effect on eotaxin level after antigen challenge", "setting": "[3]; especially 2.5 mg/kg, group C vs group B p<0.05", "result": "diminish the eotaxin level"}, {"measurement": "Lymphocyte concentration in BALF", "setting": "[4]; Group C: OVA, ATO 2.5 mg/kg", "result": "37.0 ×1000 cells/ml"}, {"measurement": "Neutrophil concentration in BALF", "setting": "[4]; Group C: OVA, ATO 2.5 mg/kg", "result": "200.7 ×1000 cells/ml"}, {"measurement": "Eosinophil concentration in BALF", "setting": "[4]; Group C: OVA, ATO 2.5 mg/kg", "result": "28.6 ± 13.0 ×1000 cells/ml"}, {"measurement": "Macrophage concentration in BALF", "setting": "[4]; Group C: OVA, ATO 2.5 mg/kg", "result": "621.0 ± 199.6 ×1000 cells/ml"}, {"measurement": "Lymphocyte concentration in BALF", "setting": "[4]; Group D: OVA, ATO 5 mg/kg", "result": "28.7 ×1000 cells/ml"}, {"measurement": "Neutrophil concentration in BALF", "setting": "[4]; Group D: OVA, ATO 5 mg/kg", "result": "244.0 ×1000 cells/ml"}, {"measurement": "Eosinophil concentration in BALF", "setting": "[4]; Group D: OVA, ATO 5 mg/kg", "result": "33.2 ± 12.5 ×1000 cells/ml"}, {"measurement": "Macrophage concentration in BALF", "setting": "[4]; Group D: OVA, ATO 5 mg/kg", "result": "499.1 ± 131.6 ×1000 cells/ml"}, {"measurement": "effect on eosinophil number in BALF", "setting": "[4]; group C and D vs group B", "result": "diminish significantly the eosinophil number"}, {"measurement": "Levels of T cell apoptosis (%) after 48 hr treatment", "setting": "[5]; 1 μM", "result": 36.1, "unit": "%"}, {"measurement": "Levels of T cell apoptosis (%) after 48 hr treatment", "setting": "[5]; 5 μM", "result": "96% and 96.2%"}]}
